Reference: article PMC7430679 (RNA, 2020)

What was measured:
T. maritima TsaD = T. maritima TsaD (Thermotoga maritima, UniProt Q9WXZ2); experiment: STD NMR; type: binding; conditions: 20 µM protein, 1 mM amino acid, 10 mM potassium phosphate pH 6.8, 100 mM NaCl, 99% D2O, 37°C
E. coli TsaD = E. coli TsaD (Escherichia coli, UniProt P05852); experiment: STD NMR; type: binding; conditions: 20 µM protein, 1 mM amino acid, 10 mM potassium phosphate pH 6.8, 100 mM NaCl, 99% D2O, 37°C
E. coli TsaD, sequence (P05852 whole entry): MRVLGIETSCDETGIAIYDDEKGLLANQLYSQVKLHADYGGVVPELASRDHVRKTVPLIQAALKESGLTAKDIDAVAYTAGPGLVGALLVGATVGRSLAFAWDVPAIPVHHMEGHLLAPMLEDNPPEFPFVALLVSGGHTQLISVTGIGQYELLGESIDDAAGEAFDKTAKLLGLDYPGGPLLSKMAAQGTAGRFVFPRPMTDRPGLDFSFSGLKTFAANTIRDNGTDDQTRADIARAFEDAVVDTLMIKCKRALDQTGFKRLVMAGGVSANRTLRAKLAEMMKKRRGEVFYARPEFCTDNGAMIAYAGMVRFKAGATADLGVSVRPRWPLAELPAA

T. maritima TsaD, sequence (Q9WXZ2 whole entry): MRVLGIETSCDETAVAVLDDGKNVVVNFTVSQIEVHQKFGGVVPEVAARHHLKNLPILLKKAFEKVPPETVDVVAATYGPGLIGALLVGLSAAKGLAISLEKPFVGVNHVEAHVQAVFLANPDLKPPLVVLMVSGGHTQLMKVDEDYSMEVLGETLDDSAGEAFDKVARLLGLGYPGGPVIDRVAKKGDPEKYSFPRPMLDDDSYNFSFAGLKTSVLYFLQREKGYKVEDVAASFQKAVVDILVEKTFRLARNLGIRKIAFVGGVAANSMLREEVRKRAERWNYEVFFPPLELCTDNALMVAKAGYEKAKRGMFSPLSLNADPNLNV

CCC(O)C(N)C(=O)O (racemic) [hnV, D,L-3-hydroxynorvaline]
STD NMR (T. maritima TsaD; racemate tested): interaction with hydroxynorvaline, distinct signals due to interactions with the Hα and Hβ protons

C[C@@H](O)[C@H](N)C(=O)O [Thr, L-threonine]
STD NMR (E. coli TsaD): E. coli TsaD shows a similar pattern of interaction with threonine | STD NMR (T. maritima TsaD): clear STD NMR signal for its interaction with the Hβ proton of threonine
